Data on 5 molecules can be found in patent publication US5474988A, “5-phenylpyrrolo-1,4-benzoxazine and 5-phenylpyrrolo-1,4-benzothiazine compounds, process and intermediates for their production and pharmaceutical compositions containing them” (Kali-Chemie Pharma GmbH, priority 1993, dated 1995).

Experiment [1] relates to P.A.F.-induced aggregation of blood platelets. Briefly: anti-P.A.F. action in vitro (P.A.F.-induced platelet aggregation). The class given is cell-based. The conditions noted are these: Oryctolagus cuniculus, 10^-5 mole/liter, read-out: Anti-P.A.F. activity in vitro, % inhibition of the P.A.F.-induced aggregation of blood platelets from rabbit blood. The source says:
3. Determination of the anti-P.A.F. action in vitro.
P.A.F. (=Platelet Activating Factor=Platelet Aggregation Factor) is a phospholipid mediator which has a multiplicity of actions. The activation of blood platelet aggregation results in the induction of long-lasting bronchoconstrictions and hyperreactivity of the respiratory passages.
In this test, the effect of the test substances on platelet aggregation induced by addition of P.A.F. in a platelet suspension obtained from rabbit blood was investigated according to the method described by Mikashima et al. (Jap. J. Pharmacol. 44 (1987) 387-391).
A suspension of platelets obtained from rabbit blood was used which contains 4×10^9 platelets/ml in a modified Tyrode buffer solution (=Tyrode solution with the addition of 1.3 mM/l of CaCl2 and 2.5 g/l of gelatine) adjusted to pH 7.4. Tyrode solution is an aqueous solution containing, per liter, 136.9 mmole of NaCl, 2.68 mmole of KCl, 2.31 mmole of CaCl2, 1.0 mmole of MgCl2, 11.9 mmole of NaHCO3, 1.45 mmole of NaH2 PO4 and 5.55 mmole of glucose. The platelets were concentrated from 10 ml blood samples of three rabbits (New Zealand hybrids, body weight 3-4 kg) in each case. To accomplish this, the blood samples were treated with ethylenediaminetetraacetic acid and washed according to the method of Artley et al. (Brit. J. Haematol. 19 (1970), 7-17). A platelet-rich plasma was first separated by centrifugation (20 minutes at 400×g). The platelets were separated from the plasma by repeated centrifugation for 15 minutes at 1400×g.After the centrifugation, the blood platelets remaining in the sediment were resuspended in a Tyrode buffer solution (but without calcium). 0.4 mmole of lysine acetylsalicylate was then added, and the blood platelets were sedimented again after 15 minutes. The sediment was resuspended in the aforementioned modified Tyrode buffer solution, and the number of platelets in the suspension obtained was adjusted to the desired content.
A 40×10^-9 molar P.A.F. solution was employed as a reagent. This solution was prepared from a 1.8×10^-3 molar stock solution in chloroform. To do this, a 10 μl sample of the stock solution was evaporated to dryness and dissolved again in 180 μl of the modified Tyrode buffer solution, to which 0.25% of lipid-free bovine serum albumin had been added. 10^-5 molar working solutions were then prepared from this and stored frozen. Samples of these solutions were appropriately diluted for tests.
In order to carry out the test, 50 μl of the blood platelet suspension and 10 μl of a 40×10^-5 molar solution of the compound to be investigated were added to […] of the modified Tyrode buffer solution with stirring (1000 rpm) in an aggregation tube provided with a small magnetic stirrer. This corresponded to a final test substance concentration of 10^-5 mole/l. After a preincubation time of 90 seconds, 10 μl of the P.A.F. preparation were added. For 4-5 minutes, the aggregation occurring in the aggregation tube was measured by means of a computerized aggregometer.
The aggregation occurring in the test tubes containing only the platelet suspension is rated as 0%. The aggregation occurring in the test tubes containing platelet suspension and P.A.F. preparation, in which a P.A.F.-induced increase in platelet aggregation takes place, is rated as 100%. The aggregation still occurring after addition of the test substances is measured, and from this the inhibition of the P.A.F.-inducedincrease in aggregation which takes place is calculated in %.

Experiment [2] relates to 5-lipoxygenase. Briefly: inhibition of 5-lipoxygenase activity in polymorphonuclear rat leucocytes (LTB4 formation). Type of experiment: cell-based. The settings on record: 10^-5 mol/l; 22° C. An excerpt: 4. In vitro determination of 5-lipoxygenase inhibition. 4a. In vitro determination of inhibition of 5-lipoxygenase activity in polymorphonuclear rat leucocytes. Arachidonic acid contained in cell membranes is released after activiation of the polymorphonuclear leucocytes (=PMN). During the course of this, under the action of the enzyme 5-lipoxygenase (=5-LO) arachidonic acid metabolites are synthesized which can be converted to leucotriene B4 (=LTB4) by LTA4 hydrolase. LTB4 is a principal metabolite of the arachidonic acid metabolism taking place on activation of the enzyme 5-LO by the inflammatory stimulus in the cell membrane. In in vitro systems, this metabolite is secreted from PMNs. […] To accomplish this, the content of LTB4 in a culture medium of rat peritoneal PMNs was determined after stimulation by calcimycin (=calcium-ionophore A23187) such as described by […] et al., Can. J. Physiol. Pharmacol. 67 (1989), 17. A cell suspension containing peritoneal PMNs of male Sprague-Dawley rats (body weight 200 to 250 g) was obtained in a known manner as follows: 6 ml of a solution containing 27.9 g/l of sodium thioglycolate were injected i.p. into the animals in order to induce the PMN invasion due to this inflammatory stimulus. After 22 hours, the animals were sacrificed by means of lethal ether anaesthesia. 20 ml of a Hank's salt solution (=Hank's Balanced Salt Solution=HBSS), but without Ca^++ and Mg^++ ions and with 0.2% by weight of sodium citrate, were then injected into the abdominal cavity. The suspension of accumulated cells was removed from the abdominal cavity and the cells were separated by centrifugation (10 minutes at 400×g). The cells were purified by repeated centrifugation in the presence of Ficoll-Paque®, (=metrizoic acid preparation, […], manufacturer Pharmacia), then washed twice with HBSS containing Ca^++ and Mg^++ ions and resuspended in HBSS containing Ca^ ++ and Mg^++ ions and buffered with 10 mM HEPES (=hydroxyethylpiperazinoethanesulfonic acid). In order to carry out the tests, samples of 0.7 ml of the PMN suspension (=0.5×10^6 cells) in each case were incubated for 15 minutes at 22° C. in plastic tubes containing 10 μM of the test substance in dimethylformamide or, as a control experiment, only containing dimethylformamide. The LTB4 synthesis was initiated in the samples by addition of calcimycin (final concentration 5 μm), and the samples were incubated for 10 minutes at 22° C. Only solvent was added to blank control samples. After 10 minutes, the reaction was terminated by addition of 0.3 ml of cold methanol. The samples were kept for 1 hour at 4° C. and then centrifuged (5 minutes at 10,000×g). The supernatant liquid was investigated to determine its LTB4 content by means of reverse phase high-pressure liquid chromatography (=reverse phase HPLC). […] The LTB4 was identified by comparison with authentic standard solutions eluting at the same time and determined at a wavelength of 270 nm. The LTB4 contents are determined from comparison with calibrated standard solutions, and from this the inhibitory activity of the test substances was calculated in % inhibition of the LTB4 synthesis in comparison with the control samples containing no test substance.

Experiment [3] concerns cutaneous histamine induced anaphylactoid reactions. Briefly: inhibition of the anaphylactoid cutaneous reaction induced by histamine. The class given is in vivo, Sprague-Dawley rats. The conditions noted are these: Rattus norvegicus, po, 0.5 h; 2 × 10^-5 mole/kg p.o., one hour before histamine; assessed 30 minutes after provocation; read-out: Inhibitory action against cutaneous histamine induced anaphylactoid reactions in rats, % inhibition. The protocol:
1. Determination of the inhibition of the anaphylactoid cutaneous reaction induced by histamine.
The inhibition of the anaphylactoid cutaneous reaction induced by histamine was determined in Sprague-Dawley rats having body weights of 150-180 g.
In order to determine the histamine-induced anaphylactoid skin reaction, 50 μl of a physiological saline solution containing 0.8 mg/ml of histamine were injected into the animals intradermally on one flank. Immediately afterward, a solution of 26.4 mg/kg of a blue dye (Evan's Blue) was administered i.v. to the animals.
The test substances were dissolved in distilled water which contains 1% by volume of dimethylformamide and 1% by volume of Tween®20 (=polyoxyethylene(20) sorbitan monolaurate). One hour before the histamine injection, each animal received 2×10^-5 mol/kg of test substance, in each case administered orally in 0.5 ml of solution. A control group received only the solvent for comparison.
The histamine-induced anaphylactoid reactions which manifested themselves by edema formation, swelling and exudation of blue dye are assessed 30 minutes after provocation by the histamine injection. This is carried out by visual determination of the extent of the exudation of blue dye at the sites of edema formation. With the aid of comparison scales, the percentage inhibition of the anaphylactoid reactions produced by the test substances is determined in comparison with the reactions of the control animals not treated with test substance.
The results obtained with compounds of the formula I by the above test method are reproduced in the following table A. The example numbers given as identifiers for the compounds of formula I refer to the subsequent preparative examples.

The target in experiment [4] is T1, 5-lipoxygenase (Homo sapiens, UniProt P09917).
T1 construct: the 5-LO activity in human whole blood; from tissue; host or cells: heparinized human whole blood
T1 sequence (P09917 1-674): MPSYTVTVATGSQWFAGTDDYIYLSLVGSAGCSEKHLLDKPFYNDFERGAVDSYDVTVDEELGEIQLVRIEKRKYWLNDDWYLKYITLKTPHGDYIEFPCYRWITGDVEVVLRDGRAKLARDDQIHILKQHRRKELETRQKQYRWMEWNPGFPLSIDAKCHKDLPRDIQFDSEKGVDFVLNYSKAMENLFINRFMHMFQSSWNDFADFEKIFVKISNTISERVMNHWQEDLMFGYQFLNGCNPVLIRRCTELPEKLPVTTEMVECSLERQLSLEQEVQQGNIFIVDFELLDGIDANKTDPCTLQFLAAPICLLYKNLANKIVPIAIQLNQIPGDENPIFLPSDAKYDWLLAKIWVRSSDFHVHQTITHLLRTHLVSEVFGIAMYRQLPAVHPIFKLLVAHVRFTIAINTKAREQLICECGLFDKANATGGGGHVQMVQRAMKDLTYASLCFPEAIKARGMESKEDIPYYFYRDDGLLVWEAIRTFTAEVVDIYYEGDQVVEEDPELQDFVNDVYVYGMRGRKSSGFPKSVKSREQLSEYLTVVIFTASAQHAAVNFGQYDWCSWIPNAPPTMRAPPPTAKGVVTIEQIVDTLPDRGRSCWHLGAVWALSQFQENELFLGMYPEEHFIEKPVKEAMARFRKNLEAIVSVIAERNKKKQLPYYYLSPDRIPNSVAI
As to the kind of experiment: 5-lipoxygenase inhibition in human blood (LTB4 formation). Type of experiment: cell-based. The conditions noted are these: 0.5 h; 10^-5 mole/liter; human whole blood, 37° C.; read-out: In vitro % inhibitory activity on LTB4 formation in human blood stimulated by calcimycin. The protocol:
4c. In vitro determination of 5-lipoxygenase inhibition in human blood.
The inhibitory activity of the test substances on the 5-LO activity in human whole blood taking place after stimulation by calcimycin is investigated according to the method described by P. Gresele et al. (Biochem. Biophys. Commun. 137 (1986), 334).
For carrying out the test, human blood is collected in sterile 50 ml test tubes which contain 10 units of heparin/ml of blood and incubated for 5-10 minutes at 37° C. Amounts of test substance, dissolved in 10 μl of dimethylformamide, are added to 2 ml samples of this blood such that a final concentration of test substance of 10 μmol/l is achieved in the samples. Only 10 μl of the solvent were added to control samples. The samples were then incubated for 10 minutes at 37° C. In order to stimulate LTB4 synthesis, an amount of calcimycin, dissolved in 200 μl of plasma, was added to the samples such that a calcimycin concentration of 60 μmol/l was achieved, and the samples were incubated for a further 30 minutes at 37° C. The reaction was then terminated by addition of 200 μl of an ethylene glycol tetraacetate solution (corresponding to an ethylene glycol acetate concentration in the sample of 100 mmol/l). The samples are kept in an ice-bath for 10 minutes and then centrifuged (5 minutes at 1000×g). The supernantant liquids, which contain the LTB4 formed during the reaction time, are each separated and, for precipitation of the proteins contained therein, mixed with 3 ml of acetone and kept for 45 minutes at 4° C. Then the samples are centrifuged again (5 minutes at 1500×g), the supernatant liquids are separated, and the content of LTB4 therein is determined in a known manner by means of an enzyme immunoassay (=EIA). From the measured LTB4 values, the inhibitory activity of the test substances in human whole blood was calculated in % inhibition of LTB4 synthesis in comparison to the control samples containing no test substance.

In the case of `Cc1ccc(N2CCN(CCC3Cn4c(-c5ccc(O)cc5)c(C)c5cccc(c54)O3)CC2)nc1` (stereo not drawn) [Example 31], the inhibition at 10 µM in experiment [1] is 52%. Besides, the “In vitro inhibitory activity on LTB4 formation in rat PMNs stimulated by calcium ionophore A23187” value in the experiment on 5-lipoxygenase [2] is listed as 81%. For the same molecule, the inhibition in vivo at 20 µmol/kg in experiment [3] came out at 58%.
For `Cc1c(-c2ccc(O)cc2)n2c3c(cccc13)OC(CCN1CCN(c3ccccn3)CC1)C2` (stereo not drawn) [Example 30], the inhibition at 10 µM in experiment [1] was 69%. Further, the “In vitro inhibitory activity on LTB4 formation in rat PMNs stimulated by calcium ionophore A23187” value in the experiment with 5-lipoxygenase [2] is listed as 100%. Also, the inhibition in vivo at 20 µmol/kg in experiment [3] came out at 47%.
For `Cc1cccnc1N1CCN(CCCC2Cn3c(-c4ccc(O)cc4)c(C)c4cccc(c43)O2)CC1` (stereo not drawn) [Example 41], the inhibition at 10 µM at 5-lipoxygenase [4] amounted to 100%. Also, the “In vitro inhibitory activity on LTB4 formation in rat PMNs stimulated by calcium ionophore A23187” value in the experiment on 5-lipoxygenase [2] is on record as 84%. For the same molecule, the inhibition in vivo at 20 µmol/kg in experiment [3] came to 60%.
For the molecule `Cc1cccc(N2CCN(CCC3Cn4c(-c5ccc(O)cc5)c(C)c5cccc(c54)O3)CC2)n1` (stereo not drawn) [Example 33], the inhibition at 10 µM in experiment [1] was 43%. Moreover, the “In vitro inhibitory activity on LTB4 formation in rat PMNs stimulated by calcium ionophore A23187” value with 5-lipoxygenase [2] was found to be 90%. Also, in experiment [3], the inhibition in vivo at 20 µmol/kg came out at 39%.
For `Cc1cccnc1N1CCN(CCC2Cn3c(-c4ccc(O)cc4)c(C)c4cccc(c43)O2)CC1` (stereo not drawn) [Example 32] the same measures were 79%, 98% and 57%.
